Results published in PubChem BioAssay (NCI).
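In this assay, cells in 96-well plates receive the compound at five concentrations for 48 hours. Endpoints are linearly interpolated between the surrounding concentrations. At the GI50, growth is halved. Definition used: TGI = concentration required for complete inhibition of growth.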

Assays:
Experiment in all cases: DTP human tumour cell line panel, 48 h
HCT-15 colon = tested on: HCT-15 colon
NCI-H460 lung = tested on: NCI-H460 lung
SNB-19 CNS = tested on: SNB-19 CNS
OVCAR-3 ovarian = tested on: OVCAR-3 ovarian
HS 578T breast = tested on: HS 578T breast
K-562 leukemia = tested on: K-562 leukemia
RPMI-8226 leukemia = tested on: RPMI-8226 leukemia
SNB-75 CNS = tested on: SNB-75 CNS
SW-620 colon = tested on: SW-620 colon
SK-MEL-28 melanoma = tested on: SK-MEL-28 melanoma
UACC-62 melanoma = tested on: UACC-62 melanoma
A498 renal = tested on: A498 renal
MDA-MB-231 breast = tested on: MDA-MB-231 breast
NCI-H226 lung = tested on: NCI-H226 lung
COLO 205 colon = tested on: COLO 205 colon
MCF7 breast = tested on: MCF7 breast
MOLT-4 leukemia = tested on: MOLT-4 leukemia
KM12 colon = tested on: KM12 colon
SK-MEL-5 melanoma = tested on: SK-MEL-5 melanoma
HOP-92 NSCLC = tested on: HOP-92 NSCLC
EKVX NSCLC = tested on: EKVX NSCLC
SR leukemia = tested on: SR leukemia
UACC-257 melanoma = tested on: UACC-257 melanoma
M14 melanoma = tested on: M14 melanoma
NCI-H23 lung = tested on: NCI-H23 lung
HOP-62 NSCLC = tested on: HOP-62 NSCLC
SK-OV-3 ovarian = tested on: SK-OV-3 ovarian
RXF 393 renal = tested on: RXF 393 renal
SN12C renal = tested on: SN12C renal
HCT-116 colon = tested on: HCT-116 colon
T-47D breast = tested on: T-47D breast
BT-549 breast = tested on: BT-549 breast
786-0 renal = tested on: 786-0 renal
OVCAR-5 ovarian = tested on: OVCAR-5 ovarian
A549 NSCLC = tested on: A549 NSCLC
SF-268 CNS = tested on: SF-268 CNS
SF-539 CNS = tested on: SF-539 CNS
OVCAR-4 ovarian = tested on: OVCAR-4 ovarian
SK-MEL-2 melanoma = tested on: SK-MEL-2 melanoma
LOX IMVI melanoma = tested on: LOX IMVI melanoma
TK-10 renal = tested on: TK-10 renal
HT29 colon = tested on: HT29 colon
DU-145 prostate = tested on: DU-145 prostate
ACHN renal = tested on: ACHN renal
HCC-2998 colon = tested on: HCC-2998 colon
PC-3 prostate = tested on: PC-3 prostate
U251 CNS = tested on: U251 CNS
MDA-MB-435 = tested on: MDA-MB-435
HL-60(TB) leukemia = tested on: HL-60(TB) leukemia
OVCAR-8 ovarian = tested on: OVCAR-8 ovarian
MALME-3M melanoma = tested on: MALME-3M melanoma
NCI/ADR-RES ovarian = tested on: NCI/ADR-RES ovarian
CAKI-1 renal = tested on: CAKI-1 renal
CCRF-CEM leukemia = tested on: CCRF-CEM leukemia
SF-295 CNS = tested on: SF-295 CNS

CCC(=O)c1c(C(F)(F)F)n([O-])c2cc(N3CCNCC3)c(F)cc2[n+]1=O
GI50 (HCT-15 colon): 1.76 µM
TGI (HCT-15 colon): 13.5 µM
GI50 (NCI-H460 lung): 1.48 µM
TGI (NCI-H460 lung): 11.5 µM
GI50 (SNB-19 CNS): 7.31 µM
TGI (SNB-19 CNS): 20.6 µM
GI50 (OVCAR-3 ovarian): 1.66 µM
TGI (OVCAR-3 ovarian): 8.67 µM
GI50 (HS 578T breast): 2.74 µM
TGI (HS 578T breast): 21.3 µM
GI50 (K-562 leukemia): 1.65 µM
TGI (K-562 leukemia): 12.8 µM
GI50 (RPMI-8226 leukemia): 2.17 µM
TGI (RPMI-8226 leukemia): 12.2 µM
GI50 (SNB-75 CNS): 1.77 µM
TGI (SNB-75 CNS): 12.5 µM
GI50 (SW-620 colon): 2.68 µM
TGI (SW-620 colon): 17.9 µM
GI50 (SK-MEL-28 melanoma): 7.93 µM
TGI (SK-MEL-28 melanoma): 21.9 µM
GI50 (UACC-62 melanoma): 2.27 µM
TGI (UACC-62 melanoma): 11.9 µM
GI50 (A498 renal): 1.67 µM
TGI (A498 renal): 11.1 µM
GI50 (MDA-MB-231 breast): 4.17 µM
TGI (MDA-MB-231 breast): 17.1 µM
GI50 (NCI-H226 lung): 5.37 µM
TGI (NCI-H226 lung): 25.2 µM
GI50 (COLO 205 colon): 0.454 µM
TGI (COLO 205 colon): 10.8 µM
GI50 (MCF7 breast): 3.48 µM
TGI (MCF7 breast): 19.8 µM
GI50 (MOLT-4 leukemia): 2.03 µM
TGI (MOLT-4 leukemia): 34.5 µM
GI50 (KM12 colon): 1.41 µM
TGI (KM12 colon): 15.4 µM
GI50 (SK-MEL-5 melanoma): 1.26 µM
TGI (SK-MEL-5 melanoma): 3.55 µM
GI50 (HOP-92 NSCLC): 2.69 µM
TGI (HOP-92 NSCLC): 17.5 µM
GI50 (EKVX NSCLC): 2.82 µM
TGI (EKVX NSCLC): 13.7 µM
GI50 (SR leukemia): 1.53 µM
TGI (SR leukemia): 21.9 µM
GI50 (UACC-257 melanoma): 3.22 µM
TGI (UACC-257 melanoma): 13 µM
GI50 (M14 melanoma): 3.28 µM
TGI (M14 melanoma): 14.2 µM
GI50 (NCI-H23 lung): 3.42 µM
TGI (NCI-H23 lung): 16.2 µM
GI50 (HOP-62 NSCLC): 10.2 µM
TGI (HOP-62 NSCLC): 22.6 µM
GI50 (SK-OV-3 ovarian): 1.97 µM
TGI (SK-OV-3 ovarian): 10.4 µM
GI50 (RXF 393 renal): 1.62 µM
TGI (RXF 393 renal): 15.1 µM
GI50 (SN12C renal): 2.73 µM
TGI (SN12C renal): 14.6 µM
GI50 (HCT-116 colon): 1.71 µM
TGI (HCT-116 colon): 13.1 µM
GI50 (T-47D breast): 2.81 µM
TGI (T-47D breast): 19.1 µM
GI50 (BT-549 breast): 2.84 µM
TGI (BT-549 breast): 12.5 µM
GI50 (786-0 renal): 3.86 µM
TGI (786-0 renal): 17.6 µM
GI50 (OVCAR-5 ovarian): 7.78 µM
TGI (OVCAR-5 ovarian): 27.3 µM
GI50 (A549 NSCLC): 2.58 µM
TGI (A549 NSCLC): 13.8 µM
GI50 (SF-268 CNS): 4.76 µM
TGI (SF-268 CNS): 21.1 µM
GI50 (SF-539 CNS): 10.3 µM
TGI (SF-539 CNS): 22.4 µM
GI50 (OVCAR-4 ovarian): 1.89 µM
TGI (OVCAR-4 ovarian): 25 µM
GI50 (SK-MEL-2 melanoma): 2.7 µM
TGI (SK-MEL-2 melanoma): 11.7 µM
GI50 (LOX IMVI melanoma): 3.41 µM
TGI (LOX IMVI melanoma): 19.4 µM
GI50 (TK-10 renal): 2.93 µM
TGI (TK-10 renal): 17 µM
GI50 (HT29 colon): 2.1 µM
TGI (HT29 colon): 18.5 µM
GI50 (DU-145 prostate): 1.61 µM
TGI (DU-145 prostate): 4.36 µM
GI50 (ACHN renal): 1.55 µM
TGI (ACHN renal): 13.7 µM
GI50 (HCC-2998 colon): 1.4 µM
TGI (HCC-2998 colon): 14.3 µM
GI50 (PC-3 prostate): 2.33 µM
TGI (PC-3 prostate): 15.8 µM
GI50 (U251 CNS): 5.04 µM
TGI (U251 CNS): 19.9 µM
GI50 (MDA-MB-435): 4.95 µM
TGI (MDA-MB-435): 17.3 µM
GI50 (HL-60(TB) leukemia): 1.18 µM
TGI (HL-60(TB) leukemia): 6.68 µM
GI50 (OVCAR-8 ovarian): 2.38 µM
TGI (OVCAR-8 ovarian): 11.7 µM
GI50 (MALME-3M melanoma): 0.324 µM
TGI (MALME-3M melanoma): 8.16 µM
GI50 (NCI/ADR-RES ovarian): 3.95 µM
TGI (NCI/ADR-RES ovarian): 24.3 µM
GI50 (CAKI-1 renal): 3.27 µM
TGI (CAKI-1 renal): 17.9 µM
GI50 (CCRF-CEM leukemia): 2.05 µM
TGI (CCRF-CEM leukemia): 22.9 µM
GI50 (SF-295 CNS): 4.2 µM
TGI (SF-295 CNS): 18.5 µM
